The results in this text go back to US9233983B2, “Substituted hetero-bicyclic compounds, compositions and medicinal applications thereof” (ADVINUS THERAPEUTICS LIMITED, priority 2012, dated 2016).

Where only a bound is given, the exact number is not on record here.

human Bruton's Tyrosine Kinase (Btk), sequence (Q06187 whole entry): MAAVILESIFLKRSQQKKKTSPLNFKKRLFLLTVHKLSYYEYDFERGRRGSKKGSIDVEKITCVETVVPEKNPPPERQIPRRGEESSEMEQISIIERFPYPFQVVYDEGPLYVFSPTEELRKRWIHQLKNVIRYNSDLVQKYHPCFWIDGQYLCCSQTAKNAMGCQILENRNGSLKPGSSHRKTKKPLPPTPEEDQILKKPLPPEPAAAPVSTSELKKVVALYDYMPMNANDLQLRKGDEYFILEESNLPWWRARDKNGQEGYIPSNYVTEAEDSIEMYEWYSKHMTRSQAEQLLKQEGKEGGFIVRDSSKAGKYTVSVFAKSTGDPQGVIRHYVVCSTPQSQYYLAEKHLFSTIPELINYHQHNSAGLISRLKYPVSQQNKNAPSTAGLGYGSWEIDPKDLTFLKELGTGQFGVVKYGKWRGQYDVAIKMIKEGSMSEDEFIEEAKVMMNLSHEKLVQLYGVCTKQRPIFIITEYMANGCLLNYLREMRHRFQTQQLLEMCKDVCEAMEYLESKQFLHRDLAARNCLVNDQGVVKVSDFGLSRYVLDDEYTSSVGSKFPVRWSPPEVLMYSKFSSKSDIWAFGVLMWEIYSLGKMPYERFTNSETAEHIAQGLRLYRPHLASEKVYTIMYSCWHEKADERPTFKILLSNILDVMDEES

The experiment addresses human Bruton's Tyrosine Kinase (Btk) (Homo sapiens (Human), UniProt Q06187). As to the kind of experiment: Recombinant Human Bruton's Tyrosine Kinase (Btk) Inhibition Assay (HTRF KinEASE-TK). In kind it is biochemical. Particulars: 20 ng/ml rhBtk, 77 μM ATP (KM), 1 μM TK-Biotin substrate, 90 min; read-out: hBTK IC50.
As to `Cc1c(-c2ncnc3[nH]c(-c4cccc(CN5CCNCC5)c4)cc23)cccc1N1CCc2cc(C3CC3)ccc2C1=O` [Example A-3, 6-cyclopropyl-2-[2-methyl-3-[6-[3-(piperazin-1-ylmethyl)phenyl]-7H-pyrrolo[2,3-d]pyrimidin-4-yl]phenyl]-3,4-dihydroisoquinolin-1-one], the IC50 turned out to be 515 nM.
For `Cc1c(-c2ncnc3[nH]c(-c4cccc(CN5CCNCC5)c4)cc23)cccc1N1CCOc2cc(C3CC3)ccc2C1=O` [Example A-4, 8-cyclopropyl-4-[2-methyl-3-[6-[3-(piperazin-l-ylmethyl)phenyl]-7H-pyrrolo[2,3-d]pyrimidin-4-yl]phenyl]-2.3-dihydro-l,4-benzoxazepin-5-one], the IC50 came out at 396 nM.
With `Cc1c(-c2ncnc3[nH]c(-c4ccc(CN5CCOCC5)cc4)cc23)cccc1N1CCOc2cc(C3CC3)ccc2C1=O` [Example A-5, 8-cyclopropyl-4-[2-methyl-3-[6-[4-(morpholinomethyl)phenyl]-7H-pyrrolo[2,3-d]pyrimidin-4-yl]phenyl]-2,3-dihydro-1,4-benzoxazepin-5-one], the 50% inhibitory concentration (IC50) is 92 nM.
Next, `Cc1c(-c2ncnc3[nH]c(-c4ccc(CN5CCOCC5)cc4)cc23)cccc1N1CCc2cc(C3CC3)ccc2C1=O` [Example A-6, 6-cyclopropyl-2-[2-methyl-3-[6-[4-(morpholinomethyl)phenyl]-7H-pyrrolo[2,3-d]pyrimidin-4-yl]phenyl]-3,4-dihydroisoquinolin-1-one]: 143 nM; `Cc1c(-c2ncnc3[nH]c(-c4cccc(CN5CCOCC5)c4)cc23)cccc1N1CCOc2cc(C3CC3)ccc2C1=O` [Example A-7, 8-cyclopropyl-4-[2-methyl-3-[6-[3-(morpholinomethyl)phenyl]-7H-pyrrolo[2,3-d]pyrimidin-4-yl]phenyl]-2,3-dihydro-1,4-benzoxazepin-5-one]: 415 nM; `Cc1c(-c2ncnc3[nH]c(-c4cccc(CN5CCOCC5)c4)cc23)cccc1N1CCc2cc(C3CC3)ccc2C1=O` [Example A-8, 6-cyclopropyl-2-[2-methyl-3-[6-[3-(morpholinomethyl)phenyl]-7H-pyrrolo[2,3-d]pyrimidin-4-yl]phenyl]-3,4-dihydroisoquinolin-1-one]: 825 nM.
For the compound `Cc1c(-c2ncnc3[nH]c(-c4ccc(CN5CCN(C)CC5)cc4)cc23)cccc1N1CCc2cc(C3CC3)ccc2C1=O` [Example B-3, 6-cyclopropyl-2-[2-methyl-3-[6-[4-[(4-methylpiperazin-1-yl)methyl]phenyl]-7H-pyrrolo[2,3-d]pyrimidin-4-yl]phenyl]-3,4-dihydroisoquinolin-1-one], the half-inhibitory concentration (IC50) worked out at 30 nM.
For `CCN1CCN(Cc2ccc(-c3cc4c(-c5cccc(N6CCc7cc(C8CC8)ccc7C6=O)c5C)ncnc4[nH]3)cc2)CC1` [Example B-4, 6-cyclopropyl-2-[3-[6-[4-[(4-ethylpiperazin-1-yl)methyl]phenyl]-7H-pyrrolo[2,3-d]pyrimidin-4-yl]-2-methyl-phenyl]-3,4-dihydroisoquinolin-1-one], the half-inhibitory concentration (IC50) amounted to 41 nM.
The result for `CN1CCN(Cc2ccc(-c3cc4c(-c5cccc(-n6ccc7cc(C8CC8)ccc7c6=O)c5CO)ncnc4[nH]3)cc2)CC1` [Example B-8, 6-cyclopropyl-2-[2-(hydroxymethyl)-3-[6-[4-[(4-methylpiperazin-1-yl)methyl]phenyl]-7H-pyrrolo[2,3-d]pyrimidin-4-yl]phenyl]isoquinolin-1-one] reads 7 nM; that for `Cc1c(-c2ncnc3[nH]c(-c4ccc(CN5CCN(C)CC5)cc4)cc23)cccc1-n1ccc2cc(C3CC3)ccc2c1=O` [Example B-9, 6-cyclopropyl-2-[2-methyl-3-[6-[4-[(4-methylpiperazin-l-yl)methyl]phenyl]-7H-pyrrolo[2,3-d]pyrimidin-4-yl]phenyl]isoquinolin-1-one], 10 nM.
As for `Cc1c(-c2ncnc3[nH]c(-c4ccc(CN5CCNC(=O)C5)cc4)cc23)cccc1N1CCc2cc(C3CC3)ccc2C1=O` [Example B-11, 6-cyclopropyl-2-[2-methyl-3-[6-[4-[(3-oxopiperazin-1-yl)methyl]phenyl]-7H-pyrrolo[2,3-d]pyrimidin-4-yl]phenyl]-3,4-dihydroisoquinolin-1-one], the IC50 was found to be 254 nM.
Regarding `Cc1c(-c2ncnc3[nH]c(-c4ccc(CN5CCC(C)(O)CC5)cc4)cc23)cccc1N1CCc2cc(C3CC3)ccc2C1=O` [Example B-12, 6-cyclopropyl-2-[3-[6-[4-[(4-hydroxy-4-methyl-1-piperidyl)methyl]phenyl]-7H-pyrrolo[2,3-d]pyrimidin-4-yl]-2-rnethyl-phenyl]-3,4-dihydroisoquinolin-1-one], the IC50 came out at 115 nM.
The result for `Cc1c(-c2ccnc3[nH]c(-c4ccc(CN5CCN(C)CC5)cc4)cc23)cccc1N1CCOc2cc(C3CC3)ccc2C1=O` [Example B-15, 8-cyclopropyl-4-[2-methyl-3-[2-[4-[(4-methylpiperazin-1-yl)methyl]phenyl]-1H-pyrrolo[2,3-b]pyridin-4-yl]phenyl]-2,3-dihydro-1,4-benzoxazepin-5-one] reads 103 nM.
With `CN1CCN(Cc2ccc(-c3cc4c(-c5cccc(N6CCOc7cc(C8CC8)ccc7C6=O)c5CO)ccnc4[nH]3)c(F)c2)CC1` [Example B-18, 8-cyclopropyl-4-[3-[2-[2-fluoro-4-[(4-methylpiperazin-1-yl)methyl]phenyl]-1H-pyrrolo[2,3-b]pyridin-4-yl]-2-(hydroxymethyl)phenyl]-2,3-dihydro-1,4-benzoxazepin-5-one], the IC50 amounted to 9 nM.
As for `Cc1c(-c2ccnc3[nH]c(-c4ccc(CN5CCN(C)CC5)c(F)c4)cc23)cccc1N1CCOc2cc(C3CC3)ccc2C1=O` [Example B-19, 8-cyclopropyl-4-[3-[2-[3-fluoro-4-[(4-methylpiperazin-1-yl)methyl]phenyl]-lH-pyrrolo[2,3-b]pyridin-4-yl]-2-methyl-phenyl]-2,3-dihydro-1,4-benzoxazepin-5-one], the IC50 is 190 nM.
Next, `CCN1CCN(Cc2ccc(-c3cc4c(-c5cccc(N6CCOc7cc(C8CC8)ccc7C6=O)c5CO)ccnc4[nH]3)cn2)CC1` [Example B-21, 8-cyclopropyl-4-[3-[2-[6-[(4-ethylpiperazin-1-yl)methyl]-3-pyridyl]-1H-pyrrolo[2,3-b]pyridin-4-yl]-2-(hydroxymethyl)phenyl]-2,3-dihydro-1,4-benzoxazepin-5-one]: 8 nM; `CN1CC=C(c2ccc(-c3cc4c(-c5cccc(N6CCOc7cc(C8CC8)ccc7C6=O)c5CO)ccnc4[nH]3)cc2)CC1` [Example C-4, 8-cyclopropyl-4-[2-(hydroxymethyl)-3-[2-[4-(1-methyl-3,6-dihydro-2H-pyridin-4-yl)phenyl]-1H-pyrrolo[2,3-b]pyridin-4-yl]phenyl]-2,3-dihydro-1,4-benzoxazepin-5-one]: 11 nM; `Cc1c(-c2ncnc3[nH]c(-c4cnn(C5CCN(C)CC5)c4)cc23)cccc1N1CCOc2cc(C3CC3)ccc2C1=O` [Example D-2, 8-cyclopropyl-4-[2-methyl-3-[6-[1-(1-methyl-4-piperidyl)pyrazol-4-yl]-7H-pyrrolo[2,3-d]pyrimidin-4-yl]phenyl]-2,3-dihydro-1,4-benzoxazepin-5-one]: 13 nM.
For `Cc1nn(C2CN(C)C2)cc1-c1cc2c(-c3cccc(N4CCOc5cc(C6CC6)ccc5C4=O)c3CO)ccnc2[nH]1` [Example E-1, 8-cyclopropyl-4-[2-(hydroxymethyl)-3-[2-[3-methyl-1-(1-methylazetidin-3-yl)pyrazol-4-yl]-1H-pyrrolo[2,3-b]pyridin-4-yl]phenyl]-2,3-dihydro-1,4-benzoxazepin-5-one], the 50% inhibitory concentration (IC50) came to 9 nM.
Next, `O=C1c2ccc(C3CC3)cc2OCCN1c1cccc(-c2ccnc3[nH]c(-c4cnn(C5CCOCC5)c4)cc23)c1CO` [Example F-2, 8-cyclopropyl-4-[2-(hydroxymethyl)-3-[2-(1-tetrahydropyran-4-ylpyrazol-4-yl)-1H-pyrrolo[2,3-b]pyridin-4-yl]phenyl]-2,3-dihydro-1,4-benzoxazepin-5-one]: 43 nM; `Cc1c(-c2ncnc3[nH]c(-c4ccc(C5CCN(CCO)CC5)cc4)cc23)cccc1-n1ccc2cc(C3CC3)ccc2c1=O` [Example H-1, 6-cyclopropyl-2-[3-[6-[4-[1-(2-hydroxyethyl)-4-piperidyl]phenyl]-7H-pyrrolo[2,3-d]pyrimidin-4-yl]-2-methyl-phenyl]isoquinolin-1-one]: 13 nM; `CN1CCN(Cc2ccc(-c3cc4c(-c5cccc(N6CCOc7cc(C8CC8)cnc7C6=O)c5CO)ccnc4[nH]3)nc2)CC1` [Example I-3, 8-cyclopropyl-4-[2-(hydroxymethyl)-3-[2-[5-[(4-methylpiperazin-1-yl)methyl]-2-pyridyl]-1H-pyrrolo[2,3-b]pyridin-4-yl]phenyl]-2,3-dihydropyrido[2,3-f][1,4]oxazepin-5-one]: 35 nM.
`CN(C)C(=O)N1CCN(Cc2ccc(-c3cc4c(-c5cccc(N6CCOc7cc(C8CC8)ccc7C6=O)c5CO)ccnc4[nH]3)nc2)CC1` [Example I-11, 4-[[6-[4-[3-(8-cyclopropyl-5-oxo-2,3-dihydro-1,4-benzoxazepin-4-yl)-2-(hydroxymethyl)phenyl]-1H-pyrrolo[2,3-b]pyridin-2-yl]-3-pyridyl]methyl]-N,N-dimethyl-piperazine-1-carboxamide]: the IC50 is > 1000 nM.
Turning to `O=C1c2c(F)cc(C3CC3)cc2OCCN1c1cc(F)cc(-c2ccnc3[nH]c(-c4ccc(CN5CCN(C6COC6)CC5)cn4)cc23)c1CO` [Example I-17, 8-cyclopropyl-6-fluoro-4-[5-fluoro-2-(hydroxymethyl)-3-[2-[5-[[4-(oxetan-3-yl)piperazin-1-yl]methyl]-2-pyridyl]-1H-pyrrolo[2,3-b]pyridin-4-yl]phenyl]-2,3-dihydro-1,4-benzoxazepin-5-one], the IC50 came to 1.3 nM.
In the case of `Cc1c(-c2ncnc3[nH]c(-c4ccc(C(=O)N5CCCC(O)C5)cc4)cc23)cccc1N1CCOc2cc(C3CC3)ccc2C1=O` (stereo not shown) [Example K-3, 8-cyclopropyl-4-[3-[6-[4-(3-hydroxypiperidine-1-carbonyl)phenyl]-7H-pyrrolo[2,3-d]pyrimidin-4-yl]-2-methyl-phenyl]-2,3-dihydro-1,4-benzoxazepin-5-one], the concentration for half-maximal inhibition (IC50) was found to be 42 nM.

For orientation: IC50 means the concentration that gives 50% inhibition.
